Measurements reported in paper PMC4203866, “Identification of plant-derived natural products as potential inhibitors of the Mycobacterium tuberculosis proteasome” (BMC Complementary and Alternative Medicine, 2014).
Structures can show the parent of a compound that is named as a salt.

Molecular target: T1, Mtb proteasome (Mycobacterium tuberculosis, UniProt P9WHT9)
T1 construct: Proteasome activity of the supernatants was assessed; endogenous in cells; host or cells: Mycobacterium tuberculosis H37Ra (crude lysate supernatant)
T1 sequence (P9WHT9 58-291): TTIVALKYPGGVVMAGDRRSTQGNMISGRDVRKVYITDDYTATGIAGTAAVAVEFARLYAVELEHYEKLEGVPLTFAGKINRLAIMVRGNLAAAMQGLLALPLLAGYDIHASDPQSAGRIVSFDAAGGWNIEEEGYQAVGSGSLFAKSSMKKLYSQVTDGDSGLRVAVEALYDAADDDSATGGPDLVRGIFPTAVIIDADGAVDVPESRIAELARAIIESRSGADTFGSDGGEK
T1 sequence (P9WHU1 whole entry partner): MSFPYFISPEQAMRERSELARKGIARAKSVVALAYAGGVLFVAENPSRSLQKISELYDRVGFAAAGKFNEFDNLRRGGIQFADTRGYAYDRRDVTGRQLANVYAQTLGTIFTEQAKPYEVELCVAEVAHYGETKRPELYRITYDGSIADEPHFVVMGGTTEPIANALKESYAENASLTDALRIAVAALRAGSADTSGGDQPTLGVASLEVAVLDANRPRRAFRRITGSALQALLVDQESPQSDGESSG
Assay: biochemical
Details: 0.5 h, read-out: IA: inhibitory activity of Mtb proteasome

| Compound | inhibition at 200 µM [%] |
| --- | --- |
| COc1ccc2cc3[n+](cc2c1OC)CCc1cc2c(cc1-3)OCO2 [berberine] | 0 |
| COc1c(O)cc2c(c1O)[C@@H]1O[C@H](CO)[C@@H](O)[C@H](O)[C@H]1OC2=O [bergenin] | 3.67 |
| CC(C)(C)[C@]1(O)CC2OC(=O)CC23C(=O)OC2OC(=O)[C@H](O)C231 (stereo partly drawn) [bilobalide] | 18.6 |
| CC[C@@]1(O)C(=O)OCc2c1cc1n(c2=O)Cc2cc3ccccc3nc2-1 [camptothecin] | 0 |
| COc1ccc2cc1Oc1ccc(cc1)C[C@H]1c3c(cc4c(c3Oc3cc5c(cc3OC)CCN(C)[C@@H]5C2)OCO4)CCN1C [cepharanthine] | 0 |
| O=C(/C=C/c1ccc(O)c(O)c1)O[C@@H]1C[C@](O)(C(=O)O)C[C@@H](O)[C@H]1O [chlorogenic acid] | 0 |
| Nc1ncnc2c1ncn2[C@@H]1O[C@H](CO)C[C@H]1O [cordycepin] | 7.77 |
| C=C1C(=O)O[C@@H]2/C=C(\C)CC/C=C(\C)CC[C@@H]12 [costunolide] | 41.8 |
| O=c1ccc2ccccc2o1 [coumarin] | 0 |
| COc1cc(/C=C/C(=O)CC(=O)/C=C/c2ccc(O)c(OC)c2)ccc1O [curcumin] | > 65 |
| O=c1c(-c2ccc(O)cc2)coc2cc(O)ccc12 [daidzein] | 0 |
| O=c1ccc2ccc(O)c(O)c2o1 [daphnetin] | 0 |
| C=C1CC[C@H]2C(=C)CC[C@H]3C(=C)C(=O)O[C@@H]3[C@@H]12 [dehydrocostuslactone] | 32.1 |
| C[C@@H]1CC[C@@]2(OC1)O[C@H]1C[C@H]3[C@@H]4CC=C5C[C@@H](O)CC[C@]5(C)[C@H]4CC[C@]3(C)[C@H]1[C@@H]2C [diosgenin] | 0 |
| COc1ccc(-c2cc(=O)c3c(O)cc(O)cc3o2)cc1O [diosmetin] | 0 |
| COC(=O)C1=CO[C@@H](O[C@@H]2O[C@H](CO)[C@@H](O)[C@H](O)[C@H]2O)[C@@H]2C(CO)=CC[C@H]12 [geniposide] | 0 |
| O=c1c(-c2ccc(O)cc2)coc2cc(O)cc(O)c12 [genistein] | 45.7 |

| Compound | inhibition at 200 µM [%] |
| --- | --- |
| C=C[C@@H]1C2=CCOC(=O)C2=CO[C@H]1O[C@@H]1O[C@H](CO)[C@@H](O)[C@H](O)[C@H]1O [gentiopicroside] | 0 |
| CC1(C)[C@@H](O)CC[C@]2(C)[C@H]3C(=O)C=C4[C@@H]5C[C@@](C)(C(=O)O)CC[C@]5(C)CC[C@@]4(C)[C@]3(C)CC[C@@H]12 [glycyrrhetinic Acid] | 0 |
| CC(=O)OC(C)(C)CCC(=O)[C@](C)(O)[C@H]1[C@H](O)C[C@@]2(C)[C@@H]3CC=C4[C@@H](C[C@H](O)[C@@H](O)C4(C)C)[C@]3(C)C(=O)C[C@]12C [hemslecin A] | 0 |
| CC(C)=CCOc1c2occc2cc2ccc(=O)oc12 [imperatorin] | 15.9 |
| O=C1Nc2ccccc2/C1=C1/Nc2ccccc2C1=O [indirubin] | 46 |
| CC1(C)O[C@H]2CC(=O)OC[C@]23[C@H]2CC[C@@]4(C)[C@H](c5ccoc5)OC(=O)[C@H]5O[C@]54[C@]2(C)C(=O)C[C@@H]13 [limonin] | 1.61 |
| O=c1cc(-c2ccc(O)c(O)c2)oc2cc(O)cc(O)c12 [luteolin] | 0 |
| O[C@H]1[C@H]2c3cc4c(cc3CN3CCC(=C[C@@H]1O)[C@H]23)OCO4 [lycorine hydrochloride] | 0 |
| C=CCc1ccc(O)c(-c2cc(CC=C)ccc2O)c1 [magnolol] | 0 |
| O=c1c2cc(O)c(O)cc2oc2cc(O)c([C@@H]3O[C@H](CO)[C@@H](O)[C@H](O)[C@H]3O)c(O)c12 [mangiferin] | 31.9 |
| O=C1CCC[C@@H]2[C@H]3CCCN4CCC[C@@H](CN12)[C@@H]34 [matrine] | 23.5 |
| COc1ccc(-c2cc(=O)c3c(O)c(OC)c(O)c(OC)c3o2)cc1 [nevadensin] | 48 |
| COc1ccc2ccc(=O)oc2c1CC=C(C)C [osthole] | 0 |
| CC(=O)O[C@H]1C(=O)[C@@]2(C)[C@H]([C@H](OC(=O)c3ccccc3)[C@]3(O)C[C@H](OC(=O)[C@H](O)[C@@H](NC(=O)c4ccccc4)c4ccccc4)C(C)=C1C3(C)C)[C@]1(OC(C)=O)CO[C@@H]1C[C@@H]2O [paclitaxel, reference compound] | 0 |
| C[C@@]12C[C@@]3(O)O[C@@H](O1)[C@]1(COC(=O)c4ccccc4)[C@H]3C[C@@]12O[C@@H]1O[C@H](CO)[C@@H](O)[C@H](O)[C@H]1O [paeoniflorin] | 3.05 |
| COc1ccc(C(C)=O)c(O)c1 [paeonol] | 0 |
